Data as given in patent US4477664A, “Novel 1-(4-piperidiniobenzyl)-2,3-dioxopiperazine derivatives or acid addition salts thereof” (Toyama Chemical Co., Ltd., priority 1979, dated 1984).
In brackets after ≈: the same amount, converted by molar mass.

Tests used:
L-1210 ascites cells [1] = assay: Effect on L-1210 leukemia (i): intraperitoneal inoculation, mean survival days; assay type: in vivo, BDF1-strain mice
Description: (i) L-1210 ascites cells (1×10^5 cells/head) were inoculated intraperitoneally into BDF1 -strain mice (female, 6 weeks old, each group consisting of 4 mice), and after 24 hours, the intraperitoneal administration of a test drug was started and effected once a day. The effect thereof was judged from the mean survival days. The test drug was used in the form of a solution or suspension in a saline solution or a 0.3% carboxymethyl cellulose-containing saline solution.
T/C was calculated in the same manner as in above b (i).

Ehrlich cells = assay: MIC value against Ehrlich cells (microplate method); assay type: cell-based; conditions: 96 h, 2×10^4 cells/ml, 4 days, Giemsa staining
Text: (§1) a. MIC value against HeLa S3 cells and Ehrlich cells (microplate method) Number of cells: 2×10^4 cells/ml Culture medium: Eagle's MEM+20% calf embryonic serum Culture time: 4 days Judgement: Giemsa staining

P-388 ascites cells [2] = assay: Effect on P-388 leukemia (i): intraperitoneal inoculation, mean survival days; assay type: in vivo, BDF1-strain mice; conditions: 100 mg/kg, once a day for 7 days
Description: (i) P-388 ascites cells (1×10^6 cells/head) were inoculated intraperitoneally into BDF1 -strain mice (female, 6 weeks old, each group consisting of 4 mice), and after 24 hours, the intraperitoneal administration of a test drug was started and effected once a day for 7 days. The effect thereof was judged from the mean survival days. The test drug was used in the form of a solution or suspension in a saline solution or a 0.3% carboxymethyl cellulose-containing saline solution. T/C was calculated in the same manner as in above b(i).

Acute toxicity = conditions: mouse, in vivo, ip
Text: The test drugs were used in the form of a solution or suspension in a saline solution or a 0.3% carboxymethyl cellulose-containing saline solution.

HeLa S3 cells = assay: MIC value against HeLa S3 cells (microplate method); assay type: cell-based; conditions: Homo sapiens, 96 h, 2×10^4 cells/ml, 4 days, Giemsa staining
Text: as §1

[3] = tested on: Ehrlich ascites carcinoma cells; assay: Effect on Ehrlich carcinoma (i): intraperitoneal inoculation, mean survival days; assay type: in vivo, ICR-strain mice; conditions: Mus musculus, ip, 168 h, once a day for 7 days, read-out: T/C (mean survival days)
Description: (i) Ehrlich ascites carcinoma cells (1×10^6 cells/head) were inoculated intraperitoneally into ICR-strain mice (female, 6 to 7 weeks old, each group consisting of 5 or 4 mice), and after 24 hours, the […] The effect thereof was judged from the mean survival days.
The test drugs were used in the form of a solution or suspension in a saline solution or a 0.3% carboxymethyl cellulose-containing saline solution. [formula]

[4] = tested on: Sarcoma 180 ascites cells; assay: Effect on Sarcoma 180 carcinoma: intraperitoneal inoculation, mean survival days; assay type: in vivo, ICR-strain mice; conditions: once a day for 7 days
Description: Sarcoma 180 ascites cells (1×10^6 cells/head) were inocualted intraperitoneally into ICR-strain mice (female, 6 weeks old, each group consisting of 4 or 5 mice), and after 24 hours, the intraperitoneal administration of a test drug was started, and effected once a day for 7 days. The effect thereof was judged from the mean survival days. The test drug was used in the form of a solution or suspension in a saline solution or a 0.3% carboxymethyl cellulose-containing saline solution. [formula]

B-16 melanoma cells = assay: Effect on B-16 melanoma: subcutaneous inoculation, mean tumor weight; assay type: in vivo, BDF1-strain mice
Description: B-16 melanoma cells (1×10^6 cells/head) were inoculated subcutaneously at the right armpit region into BDF1 -strain mice (male, 7 weeks old, each group consisting of 8 mice), and after 24 hours, the oral administration or subcutaneous administration at the […] […] The test drug was used in the form of a suspension or solution in a 0.3% carboxymethyl cellulose-containing saline solution or dimethylsulfoxide-propylene glycol (1:1) mixture. T/C was calculated in the same manner as in above b(ii).

[5] = tested on: Lewis lung carcinoma cells; assay: Effect on Lewis lung carcinoma: subcutaneous inoculation, average tumor weight; assay type: in vivo, BDF1-strain mice; conditions: oral, once a day for 7 days, 21st day
Description: Lewis lung carcinoma cells (1×10^6 cells/head) were inoculated subcutaneously at the right armpit region into BDF1 -strain mice (male, 6 weeks old, each group consisting of 5 mice) and after 24 hours, the oral administration of a test drug was started and effected once a day for 7 days. The effect thereof was judged from the average weight of tumor on the 21st day. The test drug was used in the form of a suspension in a 0.3% carboxymethyl cellulose-containing saline solution. T/C was calculated in the same manner as in above b(ii).

[6] = tested on: Ehrlich ascites carcinoma cells; assay: Effect on Ehrlich carcinoma (ii): subcutaneous inoculation at inguinal region, mean tumor weight; assay type: in vivo, ICR-strain mice; conditions: 250 mg/kg, orally, once a day for 5 days, judgement day 15
Description: (ii) Ehrlich ascites carcinoma cells (4×10^6 cells/head) were inoculated subcutaneously at the inguinal region into ICR-strain mice (female, 6 to 7 weeks old, each group consisting of 5 or 4 mice), and after 24 hours, the intraperitaneal or oral administration of a test drug was started and effected once a day for 5 days. The effect thereof was judged from the mean weight of tumor on the 13th or 15th day, respectively.
The test drug was used in the form of a solution or suspension in a saline solution or a 0.3% carboxymethyl cellulose-containing saline solution. [formula]

P-388 ascites cells [7] = assay: Effect on P-388 leukemia (ii): subcutaneous inoculation, mean tumor weight; assay type: in vivo, BDF1-strain mice; conditions: oral, once a day for 7 days, 11th day
Description: (ii) P-388 ascites cells (1×10^6 cells/head) were inoculated subcutaneously at the right armpit into BDF1 -strain mice (male, 7 weeks old, each group consisting of 8 mice), and after 24 hours, the oral administration of a test drug was started, and effected once a day for 7 days. The effect thereof was judged from the mean weight of the tumor at the 11th day. The test drug was used in the form of a suspension or solution in a 0.3% carboxymethyl cellulose-containing saline solution or a dimethylsulfoxide-propylene glycolphosphate buffer (1:2:1) mixture. T/C was calculated in the same manner as in above b(ii).

L-1210 ascites cells [8] = assay: Effect on L-1210 leukemia (ii): subcutaneous inoculation, mean survival days and tumor weight; assay type: in vivo, BDF1-strain mice; conditions: oral; for T/C Tumor Weight: 9th day
Description: (ii) L-1210 ascites cells (1×10^6 cells/head) were inoculated subcutaneously into BDF1 -strain mice (male, 6 weeks old, each group consisting of 4 mice), and after 24 hours, the oral administration of a test drug was started, and effected once a day for […]. The effect thereof was judged from the mean survival days and the weight of the tumor on the 9th day.
The test drug was used in the form of a suspension in a 0.3% carboxymethyl cellulose-containing saline solution. T/C was calculated in the same manner as in above b(i) and b(ii).

[9] = tested on: Ehrlich ascites carcinoma cells; assay: Effect on Ehrlich carcinoma (iii): subcutaneous inoculation at right armpit, mean tumor weight; assay type: in vivo, ICR-strain mice; conditions: once a day for 7 days, 14th day
Description: (iii) Ehrlich ascites carcinoma cells (4×10^6 cells/head) were inoculated subcutaneously at the right armpit region into ICR-strain mice (female, 7 weeks old, each group consisting of 6 or 7 mice), and after 24 hours, the oral administration or subcutaneous administration at the dorsal region of a test drug was started, and effected once a day for 7 days. The effect thereof was judged from the mean weight of the tumor on the 14th day. The test drug was used in the form of a solution or suspension in a saline solution or a 0.3% carboxymethyl cellulose-containing saline solution.
T/C was calculated in the same manner as in above (ii).

CCCCCCN1CCN(Cc2ccc(Nc3ncccn3)cc2)C(=O)C1=O [Compound 7]
T/C (mean survival days) (L-1210 ascites cells [1]; 50 mg/kg, 9 administrations): 181%
T/C (mean survival days) (L-1210 ascites cells [1]; 100 mg/kg, 7 administrations): 168.7%
T/C (mean survival days) (L-1210 ascites cells [1]; 200 mg/kg, 3 administrations): 159.5%
MIC (Ehrlich cells): 0.39 to 0.78 µg/mL (≈ 1.02 to 2.04 µM)
T/C (mean survival days) (P-388 ascites cells [2]): 166.3%
LD50 at 168 h (Acute toxicity): > 1000 mg/kg
MIC (HeLa S3 cells): 0.39 to 0.78 µg/mL (≈ 1.02 to 2.04 µM)
response vs control in vivo at 50 mg/kg ([3]; 50 mg/kg): > 187%
response vs control in vivo at 100 mg/kg [3]: > 207%
T/C (mean survival days) ([4]; 100 mg/kg): > 183.1%
Survival Ratio in Days Shown in Parenthesis ([4]; 100 mg/kg, 35 days): 3/4

O=C1C(=O)N(Cc2ccc(Nc3ncccn3)cc2)CCN1Cc1ccccc1 [Compound 13]
T/C (mean tumor weight) (B-16 melanoma cells; 100 mg/kg, orally, 7 administrations, 18th day): 62%
T/C (mean tumor weight) (B-16 melanoma cells; 200 mg/kg, orally, 9 administrations, 21st day): 23%
T/C (mean tumor weight) (B-16 melanoma cells; 50* mg/kg, subcutaneously, 7 administrations, 19th day, in dimethylsulfoxide-propylene glycol (1:1)): 88%
T/C (mean tumor weight) (B-16 melanoma cells; 100* mg/kg, orally, 7 administrations, 19th day, in dimethylsulfoxide-propylene glycol (1:1)): 40%
T/C (average tumor weight) ([5]; 100 mg/kg): 73.2%
T/C (average tumor weight) ([5]; 200 mg/kg): 67.1%
T/C (mean survival days) (L-1210 ascites cells [1]; 50 mg/kg, 9 administrations): 240.5%
T/C (mean survival days) (L-1210 ascites cells [1]; 100 mg/kg, 6 administrations): 150%
T/C (mean survival days) (L-1210 ascites cells [1]; 200 mg/kg, 3 administrations): 229%
MIC (Ehrlich cells): 0.1 µg/mL (≈ 0.258 µM)
LD50 at 168 h (Acute toxicity): > 1000 mg/kg
MIC (HeLa S3 cells): 0.1 µg/mL (≈ 0.258 µM)
T/C (mean tumor weight) [6]: 32.4%
T/C (mean tumor weight) (P-388 ascites cells [7]; 200 mg/kg): 49%
T/C (mean tumor weight) (P-388 ascites cells [7]; 60* mg/kg, solution in dimethylsulfoxide-propylene glycol-phosphate buffer (1:2:1)): 25%
T/C Survival Days (L-1210 ascites cells [8]; 50 mg/kg): 120.0%
T/C Tumor Weight (L-1210 ascites cells [8]; 50 mg/kg): 156.6%
T/C Survival Days (L-1210 ascites cells [8]; 100 mg/kg): 194.4%
T/C Tumor Weight (L-1210 ascites cells [8]; 100 mg/kg): 2.6%
T/C Survival Days (L-1210 ascites cells [8]; 250 mg/kg): 127.8%
T/C Tumor Weight (L-1210 ascites cells [8]; 250 mg/kg): 0%
T/C (mean tumor weight) ([9]; 50 mg/kg, subcutaneously): 54%
T/C (mean tumor weight) ([9]; 100 mg/kg, orally): 48%
T/C (mean tumor weight) ([9]; 200 mg/kg, orally): 26%
response vs control in vivo at 100 mg/kg [3]: > 177%
T/C (mean survival days) ([4]; 50 mg/kg): > 204%
Survival Ratio in Days Shown in Parenthesis ([4]; 50 mg/kg, 32 days): 4/5
